Experiments:
Arabidopsis [1] = conditions: in vivo
[2] = system: transformants of Arabidopsis to which a gene encoding gFBA was introduced and wild-type Arabidopsis (Columbia; Col); conditions: in vivo
eustoma = test: Effect on promoting growth of roots of eustoma; type: in vivo; conditions: MS culture medium containing 1 mM-GSSG or GSH, grown 1 month, transferred to planter
Excerpt: In the planter, 2 parts of vermiculite, 1 part of The Kureha Ikubyou Baido soil, and 1 part of vermiculite were layered as a lower layer, a middle layer, and an upper layer, respectively, and the above plants were transferred thereto.

Arabidopsis seeds = test: Germination rate (ripeness) of seeds from Arabidopsis cultivated with oxidized glutathione; type: in vivo
Excerpt: Ripeness of seeds obtained from Arabidopsis cultivated with oxidized glutathione was examined.

[3] = system: strawberry (breed; Eminent garden series, Yokubari-ichigo kurenai (SUMIKA)); test: Effect of oxidized glutathione on growth of strawberry (number of runners); type: in vivo; conditions: 50 mL of 0.5 mM-GSSG two times a week; four months after the fertilization; Cont zone two or three runners
[4] = system: Sweet corn (Canberra 90, TAKII & CO., LTD.); test: Effect 2 of oxidized glutathione on productivity of corn (time of treatment); type: in vivo
Method: Sweet corn (Canberra 90, TAKII & CO., LTD.) was sown, and then transferred to a hydroponics pot ( 1/2000 are) filled with a culture soil (6 L of vermiculite as the lower layer, 3 L of The Kureha Ikubyou Baido soil as the middle layer, and 3 L of vermiculite as the upper layer) two weeks later and additionally fertilized with 3 g of KUMIAI RIN […] S604 four weeks later and six weeks later.
Further, the GSSG-treated plant was given 50 mL of 0.2 mM-GSSG solution four times in 2 weeks (two times a week) after 2 weeks, 4 weeks, or 6 weeks had elapsed from the sowing. Further, there were prepared a management zone to which 0.2 mM-GSSG was given 22 times in total for 11 weeks after 2 weeks had elapsed from the sowing and a management zone to which 0.2 mM-GSSG was not given.
The amount of fruits and the amount of biomass of ground parts of each plant were measured and harvest index was calculated.

[5] = system: transformants of Arabidopsis to which the gFBA gene was introduced and wild-type Arabidopsis (Columbia; Col); test: Influence 3 of oxidized glutathione on gFBA transformant Arabidopsis (GSSG only, 0 mM to 5 mM); type: in vivo; conditions: only GSSG as liquid fertilizer
Excerpt: This tendency was more clearly observed in the transformants of Arabidopsis to which the gFBA gene was introduced.

[6] = system: Arabidopsis GA synthesis mutants ga20ox1; test: Effect of oxidized glutathione on gibberellin synthesis mutant; type: in vivo; conditions: GSSG (1 mM) from sowing
Excerpt: In the drawing, “Col” indicates a wild-type Columbia, and “ga20ox1” indicates a mutant in which T-DNA is inserted into a GA20 oxidase gene that codes an enzyme of a GA biosynthesis. “ga20ox1-1” and “ga20ox1-2” are independent mutants in which T-DNA are inserted into different portions.

[7] = system: Rose (breed; Patiohit alicante); test: Influence of oxidized glutathione on growth of rose (Patiohit alicante); type: in vivo; conditions: 50 mL of 0.5 mM-GSSG two times a week for four months, then pruned
Method: Rose (breed; Patiohit alicante) was fertilized with 50 mL of 0.5 mM-GSSG solution two times a week for four months and then pruned completely and cultivated.

[8] = system: Rose saplings (breed; Purple rose); test: Effect 1 on promoting growth of sprout and floral bud of rose (Purple rose); type: in vivo; conditions: 50 mL of 0.5 mM-GSSG two times a week; one month from the fertilization
Method: Rose saplings (breed; Purple rose) were purchased at a hardware store and cultivated in pods for rice hydroponics. The rose saplings were fertilized with 50 mL of a 0.5 mM-GSSG solution in the form of a liquid fertilizer two times a week.

Tsai-hsin = test: Influence of oxidized glutathione on growth of tsai-hsin, agricultural field; type: in vivo; conditions: 0.5 mM- or 5 mM-GSSG sprayed to leaves two times a week, 1 L per zone (3 m^2)
Excerpt: Tsai-hsin was cultivated for two weeks, and then transferred to an agricultural field and grown with or without the treatment with GSSG. Tsai-hsin was fertilized with a nitrogen fertilizer that was KUMIAI RIN […] S604 in a ratio of 20 kgN per 10 are, and was additionally fertilized with 5 kgN 3 weeks later.

[9] = system: Soybean (breed: Tsurumusume) and soybean (breed; Toyomusume); test: Influence of oxidized glutathione on growth and yield of seeds of soybean, agricultural field; type: in vivo; conditions: 0.5 mM-GSSG, 50 mL per individual two times a week at base of stem; each breed
Method: The soybean was fertilized with a nitrogen fertilizer that was KUMIAI RIN […] S604 in a ratio of 20 kgN per 10 are, and was additionally fertilized with 5 kgN 3 weeks later.
Further, in a GSSG-treated management zone, a 0.5 mM-GSSG solution was given to the base of a stem (see the arrow in FIG. 21) in the amount of 50 mL per one individual two times a week in such a manner that the solution flowed along the stem.
In a case where it was likely to rain, the GSSG solution was supplied to the plant after the rain. Similarly, in a case of watering, the GSSG solution was supplied to the plant after the watering. When the harvest time of the plant of the control (i.e. normal nitrogen management zone) was coming, supply of the GSSG solution to the plant in the GSSG-treated management zone was stopped.
The seed weight, the amount of biomass, and the harvest index of the plant thus obtained in the GSSG-treated management zone, each relative to that of the plant in the normal nitrogen management zone, were measured.

[10] = system: transformants of Arabidopsis to which a gene encoding gFBA was introduced and the wild-type Arabidopsis (Columbia; Col); conditions: in vivo
Arabidopsis [11] = test: Influence 5 of treatment condition on Arabidopsis: seed weight, dry weight, harvest index; type: in vivo
Method: Seeds of Arabidopsis were sown in pods filled with soil immersed in water. The pods were transferred to trays filled with water containing 0.2 mM-GSSG or 1 mM-GSSG and cultivated there only for two weeks that were the first and second weeks (0th-14th day), the third and fourth weeks (15th-28th day), the fifth and sixth weeks (29th-42nd day), or the seventh and eighth weeks (43rd-56th day) after the sowing. That is, Arabidopsis were treated with 0.2 mM-GSSG or 1 mM-GSSG only for two weeks in a specific growth period.
Arabidopsis was cultivated under the same conditions as those described in <1. Influence of oxidized glutathione on growth of Arabidopsis> except for the above condition.
The seed weight, dry weight, and harvest index of Arabidopsis thus cultivated (three plants in each pod) were measured and an average of three pods was calculated.

[12] = 0.2 mM-GSSG, eleven weeks after two weeks had elapsed from the sowing

oxidized glutathione [GSSG]
seed weight per one pod vs not treated (Arabidopsis [1]): significantly increased the seed weight
ability to increase harvest index and crop yields, oxidized vs reduced glutathione [2]: higher ability to increase the harvest index and to significantly increase crop yields than reduced glutathione
growth of roots vs plants not treated with GSSG (eustoma): significant growth of roots
germination rate (Arabidopsis seeds; 2 days after the sowing): significantly high
germination rate, difference from seeds of plants cultivated normally (Arabidopsis seeds; 7 days after the sowing): almost no difference
germination speed of seeds of treated plants vs plants cultivated normally (Arabidopsis seeds; seeds sown in 1/2 MS culture media): germinated faster
number of runners per one stock [3]: several ten runners per one stock
amount of fruits and amount of biomass of ground parts per plant vs not treated [4, 12]: a larger amount of fruits and a larger amount of biomass of ground parts
harvest index vs not treated [4, 12]: great increase in harvest index
amount of fruits and amount of biomass of ground parts per plant vs not treated ([4]; 0.2 mM-GSSG, two weeks after four weeks had elapsed from the sowing): a larger amount of fruits and a larger amount of biomass of ground parts
amount of fruits and amount of biomass of ground parts per plant vs not treated ([4]; 0.2 mM-GSSG, two weeks after six weeks had elapsed from the sowing): a smaller amount of fruits and a smaller amount of biomass of ground parts
harvest index vs not treated ([4]; 50 mL of 0.2 mM-GSSG, two weeks after four weeks had elapsed from the sowing): great increase in harvest index
harvest index vs not treated ([4]; 50 mL of 0.2 mM-GSSG, two weeks after six weeks had elapsed from the sowing): larger harvest index
effects of increasing seed weight and harvest index compared with ammonium nitrate [5]: greatly larger than the maximum effects yielded by fertilization with nitrogen resulting from ammonium nitrate
concentration of GSSG at which the effect on harvest index was saturated ([5]; 0 mM to 5 mM): approximately 2 mM
seed weight as function of GSSG concentration ([5]; 0 mM to 5 mM): increased as concentration of GSSG increased, and the effect was not saturated at the tested concentration
seed weight [6]: significantly increased
number of flowers (sheaths) ([6]; 8 weeks after the sowing): also increased
number of lateral shoots vs water ([6]; 8 weeks after the sowing): significantly increased
growth of new floral buds vs not treated [7]: significant promotion of growth of new floral buds
growth of sprout vs not treated [8]: promoted growth of sprout
amount of growth vs normal nitrogen management zone (Tsai-hsin): significant increase in the amount of growth
amount of biomass vs normal nitrogen management zone [9]: higher
harvest index vs normal nitrogen management zone [9]: higher
seed weight vs normal nitrogen management zone [9]: higher
harvest index, whole amount of biomass and seed weight [10]: increased any of the harvest index, the whole amount of biomass, and the seed weight
dry weight vs not treated (Arabidopsis [11]; 0.2 mM-GSSG): increased little
harvest index vs not treated (Arabidopsis [11]; 0.2 mM-GSSG): increased
seed weight vs not treated (Arabidopsis [11]; 0.2 mM-GSSG): increased
dry weight vs not treated (Arabidopsis [11]; 1 mM-GSSG): evidently increased
seed weight vs not treated (Arabidopsis [11]; 1 mM-GSSG): evidently increased
harvest index vs not treated (Arabidopsis [11]; 1 mM-GSSG, except when treated 1 or 2 weeks after the sowing): evidently increased
